According to patent publication US20260144802A1, “POST-OPERATIVE DELIRIUM SUPPRESSANT” (priority 2022, published 2026):

Tests used:
[1] = test system: post-operative delirium model rats; assay: Trace memory conditioning test (trace memory test and context memory test) in aged post-operative delirium model rats; assay type: in vivo, rat; details: SD male elderly rats with laparotomy, 10 mg/kg intraperitoneally immediately after surgery, vs laparotomy+solvent
Source text: (§1) Forty (40) SD male elderly rats of 19 to 24 months of age were randomly divided into a control group, an ALLO administration group, a laparotomy+solvent administration group, and a laparotomy+ALLO administration group by 10 rats.
Rats in the laparotomy+solvent administration group and the laparotomy+ALLO administration group were anesthetized with 1.5 to 2.0% isoflurane, and then underwent a median incision of 2 cm in the abdomen. The small intestine was pulled out by about 5 cm from the laparotomy site and extended with a finger for 3 minutes. Next, the abdomen was closed, and local infiltration anesthesia was applied to the wound with 0.2% ropivacaine for post-operative pain. To rats in the laparotomy+ALLO administration group, 10 mg/kg of brexanolone was intraperitoneally administered immediately after surgery. To rats in the laparotomy+solvent administration group, only the same amount of solvent was administered instead of brexanolone. […]
Twelve (12) hours after acquisition of memory of stimulation, a “trace memory test” was performed. Specifically, “only sound stimulation” was performed under different gauges, and freezing behavior at that time was measured.
Finally, 4 hours after the trace memory test, rats were placed under a cage similar to the initial memory acquisition cage and freezing behavior of the rats without stimulation was measured as a “context memory test”.

IL-1β mRNA = IL-1β mRNA expression in the hippocampus by RT-PCR after laparotomy; assay type: in vivo, rat; details: Example 4, 12 hours after surgery, vs laparotomy+solvent, FIG. 5
Description: as §1
Rats in the laparotomy group were subjected to laparotomy in the same manner as in Example 1. To rats in the laparotomy+ALLO administration group, 10 mg/kg of brexanolone was intraperitoneally administered immediately after surgery. To rats in the laparotomy+solvent administration group, only the same amount of solvent was administered instead of brexanolone.
Rats in the control group and the ALLO administration group were not subjected to laparotomy, and only subjected to anesthesia with isoflurane and local infiltration anesthesia with ropivacaine in the same manner. […]
Twelve (12) hours after surgery, the hippocampus, which is considered to be strongly related to an onset of post-operative delirium, was extracted, and mRNA expression levels of IL-1β and TNFα, which are inflammatory cytokines suspected to be related to an onset mechanism of post-operative delirium, were measured by an RT-PCR method. After the trace memory conditioning test of Example 1, the hippocampus was extracted at 48 hours after the laparotomy, and expression levels of IL-1 and TNFα in the hippocampus sample were measured by an ELISA method. […]

SMILES | attention (proportion of freezing behavior time, trace memory test) ([1]; FIG. 1(1)) | cognitive abilities (freezing behavior, context memory test) ([1]; FIG. 1(2)) | relative expression level of IL-1β mRNA in the hippocampus (IL-1β mRNA; 10 mg/kg intraperitoneally 30 minutes before anesthesia) | relative expression level of IL-1β mRNA in the hippocampus (IL-1β mRNA; 3 mg/kg orally 30 minutes before anesthesia)
CC(=O)[C@H]1CC[C@H]2[C@@H]3CC[C@H]4C[C@H](O)CC[C@]4(C)[C@H]3CC[C@]12C [brexanolone] | significantly higher | significantly higher | significantly reduce | –
C[C@@]1(O)CC[C@H]2[C@H](CC[C@@H]3[C@@H]2CC[C@]2(C)[C@@H](C(=O)Cn4cc(C#N)cn4)CC[C@@H]32)C1 [zuranolone] | – | – | – | significantly reduce
